In assay [1] the target is T1, von Hippel-Lindau disease tumor suppressor/SWI/SNF-related matrix-associated actin-dependent regulator of chromatin subfamily A member 2 (Homo sapiens, UniProt P51531+P40337). In words: PROTAC activity at VHL/SMARCA2 in human RKO cells assessed as degradation of SMARCA2 incubated for 18 hrs by Western blot analysis. The format is cell-based. (In general: Immunoblotting shows a protein as a band on a membrane.)

Assay [2] addresses T2, von Hippel-Lindau disease tumor suppressor/SWI/SNF-related matrix-associated actin-dependent regulator of chromatin subfamily A member 4 (Homo sapiens, UniProt P51532+P40337). The experiment in a line: PROTAC activity at VHL/SMARCA4 in human RKO cells assessed as maximal degradation of SMARCA4 at 10 nM relative to control. The format is cell-based.
Target sequence in this assay (P40337 whole entry, looked up): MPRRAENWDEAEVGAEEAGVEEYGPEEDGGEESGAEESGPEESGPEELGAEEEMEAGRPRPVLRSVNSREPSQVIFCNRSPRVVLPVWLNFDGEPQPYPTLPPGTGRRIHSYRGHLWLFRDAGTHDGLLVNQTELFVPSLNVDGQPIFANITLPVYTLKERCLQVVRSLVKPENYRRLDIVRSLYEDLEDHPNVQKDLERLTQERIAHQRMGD
Target sequence in this assay (P51532 whole entry, looked up): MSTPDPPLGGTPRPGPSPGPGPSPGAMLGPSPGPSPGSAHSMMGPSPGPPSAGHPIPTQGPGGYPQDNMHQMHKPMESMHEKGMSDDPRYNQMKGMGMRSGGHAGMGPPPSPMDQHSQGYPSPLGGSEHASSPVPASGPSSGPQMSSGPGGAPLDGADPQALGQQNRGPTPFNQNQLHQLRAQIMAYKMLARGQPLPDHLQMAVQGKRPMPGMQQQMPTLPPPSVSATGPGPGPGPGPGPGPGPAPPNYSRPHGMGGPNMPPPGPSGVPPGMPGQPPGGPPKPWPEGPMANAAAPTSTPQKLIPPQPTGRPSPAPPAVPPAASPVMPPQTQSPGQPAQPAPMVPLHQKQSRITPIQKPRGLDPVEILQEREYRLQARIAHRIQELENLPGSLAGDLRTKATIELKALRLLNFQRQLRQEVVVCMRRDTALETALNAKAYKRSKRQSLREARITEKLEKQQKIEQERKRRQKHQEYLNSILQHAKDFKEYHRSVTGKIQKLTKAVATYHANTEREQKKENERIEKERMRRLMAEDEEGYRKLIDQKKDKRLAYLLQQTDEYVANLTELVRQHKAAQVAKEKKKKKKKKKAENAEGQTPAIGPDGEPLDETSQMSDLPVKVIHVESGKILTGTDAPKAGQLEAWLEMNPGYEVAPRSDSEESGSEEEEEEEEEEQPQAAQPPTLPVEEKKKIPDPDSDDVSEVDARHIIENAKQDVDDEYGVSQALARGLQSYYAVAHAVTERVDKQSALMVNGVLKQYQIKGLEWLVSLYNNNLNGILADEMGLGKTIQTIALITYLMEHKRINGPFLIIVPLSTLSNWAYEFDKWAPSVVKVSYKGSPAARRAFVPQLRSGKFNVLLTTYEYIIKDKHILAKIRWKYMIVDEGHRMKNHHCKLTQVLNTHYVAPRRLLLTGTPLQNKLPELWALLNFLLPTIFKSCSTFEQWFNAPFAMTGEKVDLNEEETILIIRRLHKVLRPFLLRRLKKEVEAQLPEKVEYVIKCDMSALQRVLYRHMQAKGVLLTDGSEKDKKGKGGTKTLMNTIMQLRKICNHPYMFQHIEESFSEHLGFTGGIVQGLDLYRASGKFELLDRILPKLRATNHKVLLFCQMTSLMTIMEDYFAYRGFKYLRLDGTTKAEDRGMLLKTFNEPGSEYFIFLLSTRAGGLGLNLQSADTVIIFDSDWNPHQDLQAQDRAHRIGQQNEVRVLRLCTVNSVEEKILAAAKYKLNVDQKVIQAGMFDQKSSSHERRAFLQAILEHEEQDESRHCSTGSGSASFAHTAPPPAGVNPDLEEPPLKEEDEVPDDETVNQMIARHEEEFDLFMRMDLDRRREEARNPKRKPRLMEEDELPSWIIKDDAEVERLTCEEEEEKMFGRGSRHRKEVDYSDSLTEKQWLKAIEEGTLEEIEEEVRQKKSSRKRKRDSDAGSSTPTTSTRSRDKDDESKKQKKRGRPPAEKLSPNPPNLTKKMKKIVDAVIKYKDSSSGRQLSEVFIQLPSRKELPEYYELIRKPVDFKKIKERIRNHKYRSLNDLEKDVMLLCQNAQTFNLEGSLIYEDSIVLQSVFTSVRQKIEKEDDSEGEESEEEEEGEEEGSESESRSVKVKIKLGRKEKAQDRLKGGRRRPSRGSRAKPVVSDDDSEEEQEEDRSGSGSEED
The target in assay [3] is Protein cereblon/Poly [ADP-ribose] polymerase 1 (Homo sapiens, UniProt P09874+Q96SW2). The experiment in a line: PROTAC activity at CRBN/PARP1 in human SW620 cells assessed as degradation of PARP1 measured after 24 hrs by Western blot analysis. Type of assay: cell-based.
The subject of assay [4] is MOLT-4. The experiment in a line: Antiproliferative activity against human MOLT-4 cells assessed as reduction in cell viability incubated for 72 hrs by CellTiter-Glo Luminescent assay. Type of assay: functional, cell-based. Conditions: MOLT-4, 72 h. In general terms: Cellular ATP, detected with luciferase, serves as a proxy for viable cell number.
The target in assay [5] is Protein cereblon/Cyclin-dependent kinase 12 (Homo sapiens) (UniProt Q9NYV4+Q96SW2). The experiment in a line: PROTAC activity at CRBN/CDK12 in human HeLa cells assessed as maximal degradation of CDK12 at 1 uM measured after 24 hrs by Western blot analysis relative to control. Type of assay: cell-based.
Assay [6] deals with T1, von Hippel-Lindau disease tumor suppressor/SWI/SNF-related matrix-associated actin-dependent regulator of chromatin subfamily A member 2. In words: PROTAC activity at VHL/SMARCA2 in human MV4-11 cells assessed as induction of SMARCA2 degradation at 10 uM by measuring maximal efficacy incubated for 20 hrs by Western blotting analysis relative to control. The format is cell-based.

In assay [7] the target is T3, von Hippel-Lindau disease tumor suppressor/Serine/threonine-protein kinase ATR (Homo sapiens) (UniProt Q13535+P40337). In words: PROTAC activity at […]/VHL in […] human HCT-116 cells assessed as maximum protein degradation at 5 uM measured after 24 hrs by immunoblot analysis relative to control. The format is cell-based.
T3 sequence (P40337 whole entry, looked up): as the sequence (P40337 whole entry, looked up) above
T3 sequence (Q13535 whole entry, looked up): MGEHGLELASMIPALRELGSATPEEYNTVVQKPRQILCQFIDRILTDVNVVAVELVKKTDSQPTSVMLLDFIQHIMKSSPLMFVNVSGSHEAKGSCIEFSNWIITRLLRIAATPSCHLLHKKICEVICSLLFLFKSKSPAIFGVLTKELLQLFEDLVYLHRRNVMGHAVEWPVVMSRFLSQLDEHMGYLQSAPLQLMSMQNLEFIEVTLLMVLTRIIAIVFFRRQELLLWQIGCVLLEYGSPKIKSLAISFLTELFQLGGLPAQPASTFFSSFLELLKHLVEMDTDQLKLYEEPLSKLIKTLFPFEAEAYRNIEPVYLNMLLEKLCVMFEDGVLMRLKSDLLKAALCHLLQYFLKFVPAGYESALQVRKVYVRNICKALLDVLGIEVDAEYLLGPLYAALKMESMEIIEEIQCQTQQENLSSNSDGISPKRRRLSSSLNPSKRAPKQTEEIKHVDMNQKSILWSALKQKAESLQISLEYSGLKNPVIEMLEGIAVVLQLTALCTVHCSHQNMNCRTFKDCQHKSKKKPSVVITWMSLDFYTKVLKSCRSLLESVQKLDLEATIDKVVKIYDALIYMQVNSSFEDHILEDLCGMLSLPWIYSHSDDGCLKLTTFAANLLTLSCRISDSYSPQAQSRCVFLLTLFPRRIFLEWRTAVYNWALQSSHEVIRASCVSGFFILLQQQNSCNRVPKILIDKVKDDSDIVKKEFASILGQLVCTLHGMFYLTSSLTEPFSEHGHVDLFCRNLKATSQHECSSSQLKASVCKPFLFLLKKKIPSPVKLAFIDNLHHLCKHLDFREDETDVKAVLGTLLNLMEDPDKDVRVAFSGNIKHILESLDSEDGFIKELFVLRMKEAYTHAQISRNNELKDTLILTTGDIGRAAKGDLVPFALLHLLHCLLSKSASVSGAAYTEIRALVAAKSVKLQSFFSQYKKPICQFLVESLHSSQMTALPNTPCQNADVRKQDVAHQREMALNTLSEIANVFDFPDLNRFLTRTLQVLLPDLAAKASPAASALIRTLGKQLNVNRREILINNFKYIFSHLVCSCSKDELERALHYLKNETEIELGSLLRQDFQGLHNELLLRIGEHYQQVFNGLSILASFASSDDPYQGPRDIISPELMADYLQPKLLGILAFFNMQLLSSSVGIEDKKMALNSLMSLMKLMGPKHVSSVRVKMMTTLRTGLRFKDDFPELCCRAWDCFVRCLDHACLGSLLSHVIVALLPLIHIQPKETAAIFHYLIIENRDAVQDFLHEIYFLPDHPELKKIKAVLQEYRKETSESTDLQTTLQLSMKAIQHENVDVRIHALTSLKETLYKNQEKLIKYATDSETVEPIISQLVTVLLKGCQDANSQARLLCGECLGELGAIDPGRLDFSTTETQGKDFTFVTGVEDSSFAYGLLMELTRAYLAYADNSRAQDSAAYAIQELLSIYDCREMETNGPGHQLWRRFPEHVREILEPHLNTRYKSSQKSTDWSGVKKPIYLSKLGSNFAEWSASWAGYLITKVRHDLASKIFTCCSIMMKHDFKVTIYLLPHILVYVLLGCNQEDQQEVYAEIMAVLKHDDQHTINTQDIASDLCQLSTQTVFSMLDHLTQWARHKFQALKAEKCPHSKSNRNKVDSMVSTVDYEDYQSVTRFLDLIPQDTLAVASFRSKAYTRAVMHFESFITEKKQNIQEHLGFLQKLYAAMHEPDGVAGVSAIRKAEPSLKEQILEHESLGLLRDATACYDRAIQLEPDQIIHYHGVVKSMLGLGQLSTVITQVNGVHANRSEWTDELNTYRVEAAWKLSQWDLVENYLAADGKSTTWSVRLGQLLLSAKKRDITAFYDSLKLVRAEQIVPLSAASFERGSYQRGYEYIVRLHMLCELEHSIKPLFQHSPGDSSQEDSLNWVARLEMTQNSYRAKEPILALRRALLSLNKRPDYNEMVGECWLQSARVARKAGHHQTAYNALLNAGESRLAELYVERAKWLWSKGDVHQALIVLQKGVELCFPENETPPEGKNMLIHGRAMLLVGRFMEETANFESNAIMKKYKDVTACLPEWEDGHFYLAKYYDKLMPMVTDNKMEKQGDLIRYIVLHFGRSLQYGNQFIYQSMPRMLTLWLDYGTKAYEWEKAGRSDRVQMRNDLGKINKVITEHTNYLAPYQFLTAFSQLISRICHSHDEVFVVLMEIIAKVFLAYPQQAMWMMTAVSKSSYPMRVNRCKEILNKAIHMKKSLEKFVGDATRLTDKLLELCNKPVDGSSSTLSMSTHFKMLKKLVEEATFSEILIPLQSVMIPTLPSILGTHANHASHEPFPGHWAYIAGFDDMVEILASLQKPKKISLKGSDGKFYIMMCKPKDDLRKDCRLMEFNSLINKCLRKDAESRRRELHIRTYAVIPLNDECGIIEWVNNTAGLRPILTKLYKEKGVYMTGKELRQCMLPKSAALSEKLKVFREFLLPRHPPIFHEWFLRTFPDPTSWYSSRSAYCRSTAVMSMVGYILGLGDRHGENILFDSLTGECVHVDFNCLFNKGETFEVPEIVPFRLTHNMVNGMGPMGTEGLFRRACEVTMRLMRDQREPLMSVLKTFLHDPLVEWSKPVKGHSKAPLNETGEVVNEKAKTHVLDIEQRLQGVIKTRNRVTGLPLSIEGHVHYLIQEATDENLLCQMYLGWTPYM
In assay [8] the test system is LoVo. The experiment in a line: Antitumor activity against human LoVo cells xenografted in BALB/c mouse assessed as tumor growth inhibition at 25 mg/kg, ip administered once daily for 14 days relative to control. The format is functional. Particulars: 336 h, time 14 day, read-out: TGI. A general note: A xenograft is tissue or cells of one species grown in another, often human tumour cells in immunodeficient mice.

Assay [9] deals with LoVo. In words: Antitumor activity against human LoVo cells xenografted in BALB/c mouse assessed as tumor growth inhibition at 50 mg/kg, ip administered once daily for 14 days relative to control. The format is functional. Conditions: 336 h, time 14 day, read-out: TGI.
For assay [10], the target named is T3, von Hippel-Lindau disease tumor suppressor/Serine/threonine-protein kinase ATR (Homo sapiens). The experiment in a line: PROTAC activity at […]/VHL in human LoVo cells assessed as maximum protein degradation at 5 uM measured after 24 hrs by immunoblot analysis relative to control. The format is cell-based.
For assay [11], the target named is T2, von Hippel-Lindau disease tumor suppressor/SWI/SNF-related matrix-associated actin-dependent regulator of chromatin subfamily A member 4. In words: PROTAC activity at VHL/SMARCA4 in human RKO cells assessed as degradation of SMARCA4. Type of assay: cell-based.
Target sequence in this assay (P51532 whole entry): as the sequence (P51532 whole entry, looked up) above
Target sequence in this assay (P40337 whole entry): as the sequence (P40337 whole entry, looked up) above
Assay [12] concerns MV4-11. In words: Antitumor activity against human MV4-11 cells xenografted in BALB/c nude mouse assessed as tumor growth inhibition at 25 mg/kg, po administered once daily for 17 days relative to control. The format is functional. Conditions: MV4-11, 408 h, time 17 day, read-out: TGI.
Assay [13] concerns the target Protein cereblon/Bromodomain-containing protein 2 (Homo sapiens) (UniProt P25440+Q96SW2). In words: PROTAC activity at CRBN/BRD2 in human MV4-11 cells assessed as maximal degradation of BRD2 protein level at 0.5 uM incubated for 4 hrs by Western blotting assay relative to control. The format is cell-based.
Assay [14] has as its target T4, Protein cereblon/Wee1-like protein kinase (Homo sapiens) (UniProt P30291+Q96SW2). The experiment in a line: PROTAC activity at CRBN/Wee1 in human MV4-11 cells assessed as maximal degradation of Wee1 at 100 nM measured after 2 hrs by Western blot analysis relative to control. Type of assay: cell-based.
Assay [15] concerns the target T4, Protein cereblon/Wee1-like protein kinase (Homo sapiens). In words: PROTAC activity at CRBN/Wee1 in human MV4-11 cells assessed as maximal degradation of Wee1 at 1 uM measured after 2 hrs by Western blot analysis relative to control. Type of assay: cell-based.

The structures appear in SMILES notation.

What is called DC50 is the concentration giving 50% degradation. For orientation: Emax means the maximal effect, on the per cent scale that the assay sets. Turning to `Cc1ncsc1-c1ccc([C@@H](CCCN2CCC(c3ccc4c(c3)n(C3CCCC3)c3nc(=O)c5c(Br)cccc5n43)CC2)NC(=O)[C@@H]2C[C@@H](O)CN2C(=O)[C@@H](NC(=O)C2(F)CC2)C(C)(C)C)cc1`, the DC50 in [1] amounted to 2 nM. Moreover, the Emax in assay [2] stood at 77%.

Consider `O=C(CCCCCCCCCCC(=O)c1cc(Cc2n[nH]c(=O)c3ccccc23)ccc1F)Cc1cccc2c1CN(C1CCC(=O)NC1=O)C2=O` (configuration not stated), for which, in assay [3], the DC50 amounted to 5.4 µM.

One may read the IC50 as the concentration needed to halve the response being measured. Regarding `C=CCn1c(=O)c2cnc(Nc3ccc(N4CCN(C)CC4)cc3)nc2n1-c1cccc(C(C)(C)O)n1` [ADAVOSERTIB], in [4], the IC50 came to 800 nM.

With `C=CCn1c(=O)c2cnc(Nc3ccc(N4CCN(CCCC(=O)NCCOCCOCCNc5cccc6c5C(=O)N(C5CCC(=O)NC5=O)C6=O)CC4)cc3)nc2n1-c1cccc(C(C)(C)O)n1` (configuration not stated), the Emax in [5] is more than 80%.

`COc1ccc(C(=O)/C=C/C(=O)N2CCN(c3cc(-c4ccccc4O)nnc3N)CC2)cc1`: the Emax in assay [6] is more than 95%.

For `C[C@H]1COCCN1c1cc(C2([S@](C)(=O)=NC(=O)CCc3cn(CCCCCCCC(=O)Nc4cccc5c4C(=O)N(C4CCC(=O)NC4=O)C5=O)nn3)CC2)nc(-c2ccnc3[nH]ccc23)n1` (some centres not stated), the Emax in [7] and in assay [10] was more than 80% throughout. In [8], the inhibition in vivo at 25 mg/kg worked out at 35.9%. Moreover, the inhibition in vivo at 50 mg/kg in assay [9] is 51.8%.

On to `Cc1ncsc1-c1ccc(CNC(=O)[C@@H]2C[C@@H](O)CN2C(=O)[C@@H](NC(=O)C2(F)CC2)C(C)(C)C)c(OCCCN2CCC(c3ccc4c(c3)n(C3CCCC3)c3nc(=O)c5c(Br)cccc5n43)CC2)c1`, for which the Emax in assay [2] is 46%. Further, in [11], the DC50 turned out to be 78 nM.

For `Nc1ncc(-c2ccc(C(=O)N3CCN(CCCCC(=O)Nc4cccc5c4C(=O)N(C4CCC(=O)NC4=O)C5=O)CC3)cc2)nc1C(=O)Nc1ccccc1` (configuration not stated), the inhibition in vivo at 25 mg/kg in assay [12] came out at 57%. Further, the maximum response (Emax) in assay [13] was more than 50%.

`C=CCn1c(=O)c2cnc(Nc3ccc(N4CCN(CCCNc5cccc6c5C(=O)N(C5CCC(=O)NC5=O)C6=O)CC4)cc3)nc2n1-c1cccc(C(C)(C)O)n1` (configuration not stated): the Emax in [14] was determined as 50%. The IC50 in assay [4] came to 390 nM.

Take `C=CCn1c(=O)c2cnc(Nc3ccc(N4CCN(CCCC(=O)N[C@H](C(=O)N5C[C@H](O)C[C@H]5C(=O)NCc5ccc(-c6scnc6C)cc5)C(C)(C)C)CC4)cc3)nc2n1-c1cccc(C(C)(C)O)n1`: the Emax in assay [15] was more than 70%.

Values taken from ChEMBL document CHEMBL5543165, “Recent Progress in DNA Damage Response-Targeting PROTAC Degraders” (J Med Chem, 2024).
